The subject of the assay is suspension culture of E. peplus. The assay is described as follows: Precursor feeding of E. peplus suspension culture with angelic acid: cell growth. It is filed as cell-based, Euphorbia peplus. The following applies: 0.5 mM angelic acid added to E. peplus suspension culture, cultivated for 7-14 days; sterile water as negative control. As to the method: Further increase of Ingenol-3-angelate was achieved using angelic acid as a precursor. A suspension culture of E. peplus, newly transferred or up to 14 days old, was supplemented with 0.5 mM angelic acid. […] The same amount of sterile water was used as a negative control. After addition of angelic acid, the culture was cultivated for 7-14 days (see FIG. 6).

`C/C=C(/C)C(=O)O` [angelic acid, 2-methyl-2(Z)-butenoic acid]: the “influence on cell growth” value is “no influence on cell growth”.

The values are drawn from US10172306B2, “Production of ingenol, ingenol esters and/or tiglian-3-one derivatives by euphorbiaceae plant cell suspension cultures” (Phyton Holdings, LLC, priority 2015, dated 2019).
